This note sets out measurements from US20230079819A1, “COMPOUNDS AND USES THEREOF” (Foghorn Therapeutics Inc., priority 2019, published 2023).

For test [1], the target named is T1, BRM (Homo sapiens, UniProt P51531).
T1 construct: made in house; host or cells: High Five insect cells
As to the kind of experiment: ATPase catalytic activity of BRM, ADP-Glo in vitro biochemical assay. The following applies: ATPase catalytic activity, 30 nM BRM, 400 μM ATP, read-out: BRM IP50 (μM)*. For orientation: ADP-Glo first removes unused ATP, then detects ADP through luciferase.

The target of test [2] is T2, BRG-1 (Homo sapiens, UniProt P51532).
T2 construct: made in house; host or cells: High Five insect cells
T2 sequence (P51532 whole entry): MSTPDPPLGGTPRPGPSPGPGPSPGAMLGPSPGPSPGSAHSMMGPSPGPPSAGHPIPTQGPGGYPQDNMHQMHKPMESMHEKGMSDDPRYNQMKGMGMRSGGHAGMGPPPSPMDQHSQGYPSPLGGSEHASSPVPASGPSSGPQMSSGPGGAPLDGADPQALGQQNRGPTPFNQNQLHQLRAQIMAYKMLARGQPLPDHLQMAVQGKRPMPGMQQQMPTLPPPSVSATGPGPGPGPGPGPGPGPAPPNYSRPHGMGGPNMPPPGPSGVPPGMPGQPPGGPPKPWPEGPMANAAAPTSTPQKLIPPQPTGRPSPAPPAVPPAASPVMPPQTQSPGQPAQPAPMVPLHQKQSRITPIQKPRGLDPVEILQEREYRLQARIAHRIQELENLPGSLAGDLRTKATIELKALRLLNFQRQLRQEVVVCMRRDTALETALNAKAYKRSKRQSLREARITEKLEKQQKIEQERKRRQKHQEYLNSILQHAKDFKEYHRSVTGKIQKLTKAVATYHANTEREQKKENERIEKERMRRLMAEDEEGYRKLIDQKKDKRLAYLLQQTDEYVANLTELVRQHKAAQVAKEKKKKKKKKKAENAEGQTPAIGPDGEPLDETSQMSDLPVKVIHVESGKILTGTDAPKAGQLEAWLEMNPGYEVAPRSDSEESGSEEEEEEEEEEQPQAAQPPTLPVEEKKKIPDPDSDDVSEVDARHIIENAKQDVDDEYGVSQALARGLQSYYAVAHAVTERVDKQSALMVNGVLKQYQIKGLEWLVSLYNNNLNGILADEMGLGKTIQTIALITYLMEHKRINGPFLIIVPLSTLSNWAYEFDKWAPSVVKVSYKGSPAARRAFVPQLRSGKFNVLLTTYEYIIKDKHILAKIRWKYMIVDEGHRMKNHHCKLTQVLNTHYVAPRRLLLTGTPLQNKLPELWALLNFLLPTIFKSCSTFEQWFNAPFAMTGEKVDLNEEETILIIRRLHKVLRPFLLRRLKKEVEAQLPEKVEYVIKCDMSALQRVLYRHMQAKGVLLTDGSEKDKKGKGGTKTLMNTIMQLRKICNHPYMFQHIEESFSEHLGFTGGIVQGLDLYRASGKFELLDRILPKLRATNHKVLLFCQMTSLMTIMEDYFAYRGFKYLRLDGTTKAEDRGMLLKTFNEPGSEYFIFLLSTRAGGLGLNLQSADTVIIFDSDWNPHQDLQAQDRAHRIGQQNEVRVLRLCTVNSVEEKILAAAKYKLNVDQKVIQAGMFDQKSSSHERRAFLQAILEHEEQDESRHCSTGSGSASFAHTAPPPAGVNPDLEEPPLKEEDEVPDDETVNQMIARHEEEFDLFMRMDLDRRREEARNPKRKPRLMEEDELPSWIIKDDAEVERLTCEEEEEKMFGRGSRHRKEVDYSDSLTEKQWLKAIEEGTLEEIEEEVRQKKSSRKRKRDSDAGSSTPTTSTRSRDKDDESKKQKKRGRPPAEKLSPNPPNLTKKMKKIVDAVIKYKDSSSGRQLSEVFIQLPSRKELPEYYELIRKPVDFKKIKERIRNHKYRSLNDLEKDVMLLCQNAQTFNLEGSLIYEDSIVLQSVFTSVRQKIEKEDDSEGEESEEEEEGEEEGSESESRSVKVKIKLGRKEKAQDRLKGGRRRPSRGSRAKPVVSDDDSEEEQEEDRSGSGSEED
As to the kind of experiment: ATPase catalytic activity of BRG-1, ADP-Glo in vitro biochemical assay. Conditions: ATPase catalytic activity, 30 nM BRG-1, 400 μM ATP, read-out: BRG1 IP50 (μM)*.

SMILES strings stand for the structures.

T1 sequence (P51531 whole entry): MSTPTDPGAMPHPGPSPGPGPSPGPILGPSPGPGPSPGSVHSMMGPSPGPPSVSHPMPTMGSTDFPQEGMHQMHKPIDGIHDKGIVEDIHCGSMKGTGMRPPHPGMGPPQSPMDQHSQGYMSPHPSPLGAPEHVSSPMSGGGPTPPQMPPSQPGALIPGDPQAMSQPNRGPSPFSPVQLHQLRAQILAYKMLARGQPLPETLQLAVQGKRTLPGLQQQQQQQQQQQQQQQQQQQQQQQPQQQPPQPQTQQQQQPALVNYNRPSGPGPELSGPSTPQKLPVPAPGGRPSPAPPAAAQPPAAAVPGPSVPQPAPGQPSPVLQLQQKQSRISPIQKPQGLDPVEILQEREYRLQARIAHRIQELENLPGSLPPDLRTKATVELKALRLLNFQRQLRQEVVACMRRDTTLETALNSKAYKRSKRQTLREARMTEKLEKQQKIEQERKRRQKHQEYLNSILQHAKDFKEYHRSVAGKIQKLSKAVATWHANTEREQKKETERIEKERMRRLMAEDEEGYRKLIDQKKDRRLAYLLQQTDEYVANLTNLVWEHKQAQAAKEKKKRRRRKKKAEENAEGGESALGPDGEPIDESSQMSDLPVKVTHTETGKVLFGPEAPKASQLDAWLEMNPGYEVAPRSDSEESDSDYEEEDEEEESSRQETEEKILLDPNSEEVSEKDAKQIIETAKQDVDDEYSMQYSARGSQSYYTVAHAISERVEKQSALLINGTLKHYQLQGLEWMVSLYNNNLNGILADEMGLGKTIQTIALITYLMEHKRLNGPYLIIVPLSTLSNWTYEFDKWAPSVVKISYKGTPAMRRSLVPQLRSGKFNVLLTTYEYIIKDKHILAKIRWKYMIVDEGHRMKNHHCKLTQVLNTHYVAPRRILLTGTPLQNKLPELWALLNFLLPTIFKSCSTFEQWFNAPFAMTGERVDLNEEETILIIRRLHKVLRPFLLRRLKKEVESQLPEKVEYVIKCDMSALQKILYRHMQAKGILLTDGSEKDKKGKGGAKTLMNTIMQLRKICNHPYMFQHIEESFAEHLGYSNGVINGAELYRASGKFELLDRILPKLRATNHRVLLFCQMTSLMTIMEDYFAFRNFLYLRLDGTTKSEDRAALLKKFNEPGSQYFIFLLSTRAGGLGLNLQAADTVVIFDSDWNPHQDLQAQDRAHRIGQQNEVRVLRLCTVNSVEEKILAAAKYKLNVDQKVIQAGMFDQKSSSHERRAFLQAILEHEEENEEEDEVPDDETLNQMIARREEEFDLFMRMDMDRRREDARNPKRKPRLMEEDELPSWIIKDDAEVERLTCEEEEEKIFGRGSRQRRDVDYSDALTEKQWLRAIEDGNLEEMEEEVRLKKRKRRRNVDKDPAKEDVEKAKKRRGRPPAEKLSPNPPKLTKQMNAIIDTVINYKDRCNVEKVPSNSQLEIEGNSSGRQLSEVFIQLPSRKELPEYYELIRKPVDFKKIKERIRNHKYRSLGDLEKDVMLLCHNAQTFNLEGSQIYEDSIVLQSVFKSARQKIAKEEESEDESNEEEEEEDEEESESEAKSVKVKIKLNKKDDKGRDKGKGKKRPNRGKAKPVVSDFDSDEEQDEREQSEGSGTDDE

`C[C@@H]1CN(c2cccc(-c3csc(NC(=O)CNC(=O)c4ccn(S(=O)(=O)N(C)C)c4)n3)c2)C[C@H](C)O1` [Compound 221]: the IC50 in test [1] and in test [2] was > 0.01 µM in each case.
Consider `COC1CC2(C1)CN(c1cccc(-c3csc(NC(=O)CNC(=O)c4ccn(S(C)(=O)=O)c4)n3)c1)C2` [Compound 222], for which the figures for the IC50 in test [1] and in test [2] were > 0.01 µM and > 0.1 µM, respectively.
Taken in the same sequence, the figures for `CS(=O)(=O)n1ccc(C(=O)NCC(=O)Nc2nc(-c3cccc(N4C[C@H]5COC[C@H]5C4)c3)cs2)c1` [Compound 223] were > 0.01 µM and > 0.01 µM.
Taken in the same sequence, the figures for `CO[C@H]1CCN(c2cccc(-c3csc(NC(=O)CNC(=O)c4ccn(S(C)(=O)=O)c4)n3)c2)C1` [Compound 224] were > 0.01 µM and > 0.01 µM.
Taken in the same sequence, the figures for `CS(=O)(=O)n1ccc(C(=O)NCC(=O)Nc2nc(-c3cccc(N4CCC(F)(F)C4)c3)cs2)c1` [Compound 225] were > 0.01 µM and > 0.01 µM.
On to `CO[C@@H]1CCN(c2cccc(-c3csc(NC(=O)CNC(=O)c4ccn(S(C)(=O)=O)c4)n3)c2)C1` [Compound 226], for which the IC50 in test [1] was < 0.01 µM; in test [2], > 0.01 µM.
Taken in the same sequence, the figures for `CS(=O)(=O)n1ccc(C(=O)NCC(=O)Nc2nc(-c3cccc(N4CC(N5CCOCC5)C4)c3)cs2)c1` [Compound 227] were > 0.01 µM and > 0.01 µM.
Taken in the same sequence, the figures for `CCS(=O)(=O)n1ccc(C(=O)NCC(=O)Nc2nc(-c3cccc(N4C[C@@H](C)O[C@@H](C)C4)c3)cs2)c1` [Compound 228] were < 0.01 µM and > 0.01 µM.
Taken in the same sequence, the figures for `C[C@@H]1CN(c2cccc(-c3csc(NC(=O)CNC(=O)c4ccn(C5COC5)c4)n3)c2)C[C@H](C)O1` [Compound 229] were > 0.1 µM and > 0.1 µM.
As to `CS(=O)(=O)n1ccc(C(=O)NCC(=O)Nc2nc(-c3cccc(N4CC5CC(C4)O5)c3)cs2)c1` [Compound 230], the IC50 was > 0.01 µM in test [1] and > 0.1 µM in test [2].
Taken in the same sequence, the figures for `CS(=O)(=O)n1ccc(C(=O)NCC(=O)Nc2nc(-c3cccc(N4CCCC4)c3)cs2)c1` [Compound 231] were > 0.01 µM and > 0.01 µM.
Take `C[C@H]1CCCN(c2cccc(-c3csc(NC(=O)CNC(=O)c4ccn(S(C)(=O)=O)c4)n3)c2)C1` [Compound 232]: the IC50 in test [1] and in test [2] was > 0.01 µM each time.
In the case of `CS(=O)(=O)n1ccc(C(=O)NCC(=O)Nc2nc(-c3cccc(N4CCC4)c3)cs2)c1` [Compound 233], the IC50 is < 0.01 µM in test [1] and > 0.01 µM in test [2].
Taken in the same sequence, the figures for `Cn1ncc2c1CCN(c1cccc(-c3csc(NC(=O)CNC(=O)c4ccn(S(C)(=O)=O)c4)n3)c1)C2` [Compound 234] were > 0.01 µM and > 0.01 µM.
Taken in the same sequence, the figures for `C[C@@H]1CN(c2cccc(-c3csc(NC(=O)CNC(=O)c4ccn(C5(C)COC5)c4)n3)c2)C[C@H](C)O1` [Compound 235] were > 0.01 µM and > 0.01 µM.
Taken in the same sequence, the figures for `CC[C@H]1CN(c2cccc(-c3csc(NC(=O)CNC(=O)c4ccn(S(C)(=O)=O)c4)n3)c2)CCO1` [Compound 236] were > 0.01 µM and > 0.01 µM.
`CC[C@@H]1CN(c2cccc(-c3csc(NC(=O)CNC(=O)c4ccn(S(C)(=O)=O)c4)n3)c2)CCO1` [Compound 237]: the IC50 in test [1] and in test [2] was > 0.01 µM throughout.
Take `C[C@@H]1CCCN(c2cccc(-c3csc(NC(=O)CNC(=O)c4ccn(S(C)(=O)=O)c4)n3)c2)C1` [Compound 238]: the IC50 in test [1] and in test [2] was > 0.01 µM each time.
Regarding `C[C@@H]1COCCN1c1cccc(-c2csc(NC(=O)CNC(=O)c3ccn(S(C)(=O)=O)c3)n2)c1` [Compound 239], the IC50 in test [1] and in test [2] was > 0.01 µM in each case.
In the case of `CS(=O)(=O)n1ccc(C(=O)NCC(=O)Nc2nc(-c3cccc(N4CCC(F)(F)CC4)c3)cs2)c1` [Compound 241], the IC50 in test [1] is > 0.01 µM; in test [2] it was > 0.1 µM.
Taken in the same sequence, the figures for `CS(=O)(=O)n1ccc(C(=O)NCC(=O)Nc2nc(-c3cccc(N4CCCCC4)c3)cs2)c1` [Compound 242] were > 0.01 µM and > 0.01 µM.
Taken in the same sequence, the figures for `CC1(O)CCN(c2cccc(-c3csc(NC(=O)CNC(=O)c4ccn(S(C)(=O)=O)c4)n3)c2)CC1` [Compound 243] were > 0.01 µM and > 0.1 µM.
Taken in the same sequence, the figures for `COC[C@@H]1CCCN(c2cccc(-c3csc(NC(=O)CNC(=O)c4ccn(S(C)(=O)=O)c4)n3)c2)C1` [Compound 244] were > 0.01 µM and > 0.01 µM.
Consider `CC(C)(C)n1ccc(C(=O)NCC(=O)Nc2nc(-c3cccc(N4CC5(COC5)C4)c3)cs2)c1` [Compound 245], for which the IC50 in test [1] and in test [2] was > 0.01 µM each time.
`COC1CN(c2cccc(-c3csc(NC(=O)CNC(=O)c4ccn(S(C)(=O)=O)c4)n3)c2)C1` [Compound 246]: the IC50 in test [1] was < 0.01 µM; in test [2], > 0.01 µM.
Taken in the same sequence, the figures for `Cc1cccc(-c2csc(NC(=O)CNC(=O)c3ccn(S(C)(=O)=O)c3)n2)c1` [Compound 247] were > 0.01 µM and > 0.01 µM.
Taken in the same sequence, the figures for `CS(=O)(=O)n1ccc(C(=O)NCC(=O)Nc2nc(-c3cccc(C(F)F)c3)cs2)c1` [Compound 248] were > 0.01 µM and > 0.01 µM.
Take `CC1Cc2ccc(-c3csc(NC(=O)CNC(=O)c4ccn(S(C)(=O)=O)c4)n3)cc2O1` (stereo not shown) [Compound 249]: the IC50 in test [1] and in test [2] was > 0.01 µM each time.
Regarding `COCCN1CCc2ccc(-c3csc(NC(=O)CNC(=O)c4ccn(S(C)(=O)=O)c4)n3)cc21` [Compound 250], the IC50 in test [1] and in test [2] was > 0.01 µM throughout.
For `CO[C@H]1C[C@H](Oc2cccc(-c3csc(NC(=O)CNC(=O)c4ccn(S(C)(=O)=O)c4)n3)c2)C1` [Compound 252], the IC50 in test [1] and in test [2] was > 0.01 µM throughout.
With `CS(=O)(=O)n1ccc(C(=O)NCC(=O)Nc2nc(-c3cc(F)c4ccoc4c3)cs2)c1` [Compound 253], the IC50 in test [1] and in test [2] was > 0.01 µM each time.
As to `CO[C@H]1C[C@@H](Oc2cccc(-c3csc(NC(=O)CNC(=O)c4ccn(S(C)(=O)=O)c4)n3)c2)C1` [Compound 254], the IC50 in test [1] and in test [2] was > 0.01 µM each time.
On to `CS(=O)(=O)n1ccc(C(=O)NCC(=O)Nc2nc(-c3cc(F)c4c(c3)OCC4)cs2)c1` [Compound 255], for which the IC50 in test [1] and in test [2] was < 0.01 µM throughout.
Turning to `CS(=O)(=O)n1ccc(C(=O)NCC(=O)Nc2nc(-c3cccc(C4(F)CCC4)c3)cs2)c1` [Compound 256], the IC50 in test [1] and in test [2] was > 0.01 µM throughout.
Consider `CO[C@]1(C)CCCN(c2cccc(-c3csc(NC(=O)CNC(=O)c4ccn(S(C)(=O)=O)c4)n3)c2)C1` [Compound 257], for which the IC50 in test [1] and in test [2] was > 0.01 µM each time.
`CO[C@@]1(C)CCCN(c2cccc(-c3csc(NC(=O)CNC(=O)c4ccn(S(C)(=O)=O)c4)n3)c2)C1` [Compound 258]: the IC50 in test [1] and in test [2] was > 0.01 µM throughout.
As for `CN1CCOCc2ccc(-c3csc(NC(=O)CNC(=O)c4ccn(S(C)(=O)=O)c4)n3)cc21` [Compound 259], the IC50 in test [1] and in test [2] was > 0.01 µM in each case.
Take `CS(=O)(=O)n1ccc(C(=O)NCC(=O)Nc2nc(-c3cc(Cl)cc(OC4CC4)c3)cs2)c1` [Compound 260]: the IC50 in test [1] and in test [2] was > 0.01 µM in each case.
Take `Cn1ncc(-c2cccc(-c3csc(NC(=O)CNC(=O)c4ccn(S(C)(=O)=O)c4)n3)c2)n1` [Compound 261]: the IC50 in test [1] and in test [2] was < 0.01 µM throughout.
As for `COc1ccncc1-c1cccc(-c2csc(NC(=O)CNC(=O)c3ccn(C4(C)COC4)c3)n2)n1` [Compound 262, N-[2-[[4-[6-(4-methoxy-3-pyridyl)-2-pyridyl]thiazol-2-yl]amino]-2-oxo-ethyl]-1-(3-methyloxetan-3-yl)pyrrole-3-carboxamide], the IC50 in test [1] and in test [2] was > 0.01 µM in each case.
For `CN1CCc2ccc(-c3csc(NC(=O)CNC(=O)c4ccn(C(C)(C)C)c4)n3)cc21` [Compound 263], the IC50 in test [1] and in test [2] was > 0.01 µM in each case.
For the compound `CS(=O)(=O)n1ccc(C(=O)NCC(=O)Nc2nc(-c3ccc4c(c3F)OCC4)cs2)c1` [Compound 264], the IC50 in test [1] and in test [2] was > 0.01 µM each time.
Take `CS(=O)(=O)n1ccc(C(=O)NCC(=O)Nc2nc(-c3cccc(OC4CC4)c3)cs2)c1` [Compound 265]: the IC50 in test [1] and in test [2] was > 0.01 µM throughout.
On to `CS(=O)(=O)n1ccc(C(=O)NCC(=O)Nc2nc(-c3cccc(OCF)c3)cs2)c1` [Compound 266], for which the IC50 in test [1] and in test [2] was > 0.01 µM in each case.
In the case of `C[C@@H]1CN(c2cc(-c3csc(NC(=O)CNC(=O)c4ccn(S(C)(=O)=O)c4)n3)cc(C3CC3)c2)C[C@H](C)O1` [Compound 267], the IC50 in test [1] and in test [2] was > 0.1 µM in each case.
For the compound `C[C@@H]1CN(c2cccc(-c3csc(NC(=O)CNC(=O)c4ccn(C5(C)COC5)c4)n3)c2F)C[C@H](C)O1` [Compound 268], the results for the IC50 in test [1] and in test [2] were > 0.01 µM and > 0.1 µM, respectively.
Taken in the same sequence, the figures for `C[C@@H]1CN(c2cccc(-c3csc(NC(=O)CNC(=O)c4ccn(C(C)(C)C)c4)n3)c2F)C[C@H](C)O1` [Compound 269] were > 0.01 µM and > 0.01 µM.
Taken in the same sequence, the figures for `CN1CCc2ccc(-c3csc(NC(=O)CNC(=O)c4ccn(S(C)(=O)=O)c4)n3)cc21` [Compound 270] were > 0.01 µM and > 0.01 µM.
Taken in the same sequence, the figures for `CC1(n2ccc(C(=O)NCC(=O)Nc3nc(-c4ccc5c(c4)OCC5)cs3)c2)COC1` [Compound 271] were > 0.01 µM and > 0.1 µM.
Regarding `CNc1cccc(-c2csc(NC(=O)CNC(=O)c3ccn(C(C)(C)C)c3)n2)c1` [Compound 272], the IC50 in test [1] was > 0.01 µM; in test [2], > 0.1 µM.
